Like-named read-outs stand apart in the source and are kept apart here.
Assays:
LNCaP cells = assay: Cell proliferation inhibition assay in LNCaP cells (0.2 nM DHT, CellTiter-Glo, 7 days); format: cell-based, human
Procedure: • 1. The human prostate cancer cell lines 22RV1 and LNCaP were purchased from ATCC. […] The cell concentration was adjusted to an appropriate concentration (determined based on the results of cell density optimization experiments), and the cells were seeded into a 96-well plate. A 100 µL cell suspension was added, resulting in 3000 cells per well. […] On the second day, for 22Rv1 cells, test compounds at different concentrations were added, and the cells were incubated at 37°C in a 5% CO2 incubator for 7 days; for LNCaP cells, test compounds at different concentrations were added first, and after 1 hour of treatment, 0.2 nM DHT was added. The cells were then incubated at 37°C in a 5% CO2 incubator for 7 days. • 4. After the incubation period, a volume of CellTiter-Glo detection reagent equal to the volume of the culture medium was added to each well. The plate was shaken and mixed thoroughly for 5 minutes, then incubated at room temperature for 10 minutes. Readings were taken using a PerkinElmer EnVision microplate reader. • 5.
The IC50 curve was fitted and the IC50 value was calculated using the software GraphPad Prism 8 with the calculation formula XY-analysis/Nonlinear regression (curve fit)/Dose response-Inhibition/log (inhibitor) vs. response-Variable slope (four parameters).

CYP2C19 = biological target: T1, CYP2C19 (Homo sapiens, UniProt P33261); assay: CYP inhibition assay in human liver microsomes; format: in vitro ADME; settings: human liver microsomes, NADPH; read-out: CYPs 2C19 (IC50)
T1 construct: co-incubated with human liver microsomes; from tissue; host or cells: human liver microsomes
Procedure: (§1) Test Example 3: CYP Inhibition Assay
(§2) An in vitro assay system was used to evaluate the effects of the compounds on the activities of several human liver microsomal cytochrome P450 (CYP) isozymes (CYP1A2, CYP2C9, CYP2D6, CYP3A4 (testosterone/midazolam), CYP2C19, and CYP2C8). Specific probe substrates for CYP450 isozymes were co-incubated with human liver microsomes and the compound at various concentrations (0, 0.0300, 0.100, 0.300, 1.00, 3.00, 10.0 µM). The reaction was initiated by adding the coenzyme NADPH. After the reaction was completed, the samples were processed, and the metabolites generated from the probe substrates were detected by liquid chromatography-tandem mass spectrometry (LC-MS/MS). Based on the resulting dose-response curves, the IC50 values of the test compounds for the probe substrate reactions catalyzed by each CYP isozyme were calculated.

CYP2C8 = biological target: T2, CYP2C8 (Homo sapiens, UniProt P10632); assay: CYP inhibition assay in human liver microsomes; format: in vitro ADME; settings: human liver microsomes, NADPH; read-out: CYPs 2C8 (IC50)
T2 construct: co-incubated with human liver microsomes; from tissue; host or cells: human liver microsomes
T2 sequence (P10632 1-490): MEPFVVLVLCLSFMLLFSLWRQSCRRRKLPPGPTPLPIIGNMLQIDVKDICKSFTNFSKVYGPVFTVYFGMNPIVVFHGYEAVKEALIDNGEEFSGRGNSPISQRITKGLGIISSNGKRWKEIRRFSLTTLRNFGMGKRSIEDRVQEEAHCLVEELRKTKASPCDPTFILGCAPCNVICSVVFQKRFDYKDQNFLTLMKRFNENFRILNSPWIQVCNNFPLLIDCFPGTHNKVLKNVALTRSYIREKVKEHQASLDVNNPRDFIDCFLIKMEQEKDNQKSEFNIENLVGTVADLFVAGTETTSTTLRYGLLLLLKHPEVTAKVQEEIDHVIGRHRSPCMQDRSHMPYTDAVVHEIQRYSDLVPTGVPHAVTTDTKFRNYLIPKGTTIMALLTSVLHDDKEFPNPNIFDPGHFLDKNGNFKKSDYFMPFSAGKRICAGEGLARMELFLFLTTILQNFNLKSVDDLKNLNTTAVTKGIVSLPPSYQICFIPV
Procedure: as §1, §2

[1] = biological target: T3, CYP3A4 (testosterone/midazolam) (Homo sapiens, UniProt P08684); assay: CYP inhibition assay in human liver microsomes; format: in vitro ADME
T3 construct: co-incubated with human liver microsomes; from tissue; host or cells: human liver microsomes
Procedure: as §1, §2

[2] = Mouse pharmacokinetic test; format: in vivo, ICR mice
Method in brief: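 Male naive ICR mice (25–30 g, n=3 per route) received a single intravenous or oral dose, with feeding resumed 4 h post-dose. Blood was centrifuged at 4°C, and plasma was stored at -80°C until analysis.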

22RV1 cells = assay: Cell proliferation inhibition assay in 22RV1 cells (CellTiter-Glo, 7 days); format: cell-based, human
Method in brief: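 22RV1 cells received compound alone; LNCaP cells were stimulated with 0.2 nM DHT added 1 h after compound. Seeding was 3000 cells/well.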

CYP2C9 = biological target: T4, CYP2C9 (Homo sapiens, UniProt P11712); assay: CYP inhibition assay in human liver microsomes; format: in vitro ADME; settings: human liver microsomes, NADPH; read-out: CYPs 2C9 (IC50)
T4 construct: co-incubated with human liver microsomes; from tissue; host or cells: human liver microsomes
Procedure: as §1, §2

[3] = probe substrate midazolam, read-out: CYPs 3A4 (Midazolam) (IC50)
[4] = probe substrate testosterone, read-out: CYPs 3A4 (Testosterone) (IC50)
[5] = plasma, po, 30 mg/kg, PO-30mpk, read-out: Tmax
[6] = plasma, iv, 0.5 mg/kg, IV-0.5mpk

T4 sequence (P11712 whole entry): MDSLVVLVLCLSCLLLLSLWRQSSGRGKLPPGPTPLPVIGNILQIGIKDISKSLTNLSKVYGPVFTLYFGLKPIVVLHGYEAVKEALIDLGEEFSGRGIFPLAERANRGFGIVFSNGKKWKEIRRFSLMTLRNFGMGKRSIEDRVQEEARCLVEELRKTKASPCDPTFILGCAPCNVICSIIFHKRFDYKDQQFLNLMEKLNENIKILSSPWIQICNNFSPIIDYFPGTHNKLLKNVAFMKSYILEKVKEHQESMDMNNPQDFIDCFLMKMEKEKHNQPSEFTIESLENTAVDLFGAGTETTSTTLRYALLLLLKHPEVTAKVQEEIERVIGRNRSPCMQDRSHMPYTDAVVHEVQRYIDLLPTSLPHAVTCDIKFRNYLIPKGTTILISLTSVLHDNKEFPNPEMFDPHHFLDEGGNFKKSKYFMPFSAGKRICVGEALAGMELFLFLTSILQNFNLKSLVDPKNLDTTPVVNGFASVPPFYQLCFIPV
T1 sequence (P33261 whole entry): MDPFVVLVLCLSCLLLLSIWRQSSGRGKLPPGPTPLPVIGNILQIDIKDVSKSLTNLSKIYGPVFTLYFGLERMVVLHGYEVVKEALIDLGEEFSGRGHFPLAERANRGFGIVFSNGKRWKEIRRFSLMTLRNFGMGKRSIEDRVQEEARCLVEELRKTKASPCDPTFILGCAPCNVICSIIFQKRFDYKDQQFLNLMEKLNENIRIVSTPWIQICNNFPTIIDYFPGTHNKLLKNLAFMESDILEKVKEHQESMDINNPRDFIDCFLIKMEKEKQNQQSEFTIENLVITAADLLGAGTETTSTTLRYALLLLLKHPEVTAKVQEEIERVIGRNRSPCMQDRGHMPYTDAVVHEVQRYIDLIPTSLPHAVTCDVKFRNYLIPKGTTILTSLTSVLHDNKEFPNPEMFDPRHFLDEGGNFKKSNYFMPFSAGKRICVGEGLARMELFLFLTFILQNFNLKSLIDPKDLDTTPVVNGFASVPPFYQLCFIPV
T3 sequence (P08684 whole entry): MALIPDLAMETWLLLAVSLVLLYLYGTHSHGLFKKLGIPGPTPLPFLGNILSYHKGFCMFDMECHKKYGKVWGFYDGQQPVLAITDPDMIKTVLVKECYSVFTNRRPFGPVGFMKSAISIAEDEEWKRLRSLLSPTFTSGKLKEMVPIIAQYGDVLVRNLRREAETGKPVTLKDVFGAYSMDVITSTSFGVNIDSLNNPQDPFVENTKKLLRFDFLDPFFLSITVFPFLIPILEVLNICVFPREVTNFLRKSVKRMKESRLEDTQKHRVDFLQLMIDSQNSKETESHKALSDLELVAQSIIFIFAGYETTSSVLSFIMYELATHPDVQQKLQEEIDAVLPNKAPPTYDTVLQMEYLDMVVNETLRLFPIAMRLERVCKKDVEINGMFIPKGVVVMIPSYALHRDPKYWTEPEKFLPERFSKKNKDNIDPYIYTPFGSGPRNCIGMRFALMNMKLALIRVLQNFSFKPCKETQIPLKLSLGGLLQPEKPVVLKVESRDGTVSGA

SMILES | IC50 (CYP2C19) [µM] | IC50 (CYP2C8) [µM] | IC50 [1, 3] [µM] | IC50 [1, 4] [µM] | Cmax ([2]; plasma, po, 30 mg/kg, PO-30mpk) [ng/mL] | half-life ([2]; plasma, po, 30 mg/kg, PO-30mpk) [h] | Tmax [2, 5] [h] | IC50 (22RV1 cells; Homo sapiens, 22Rv1, 168 h) [µM] | AUC(0-inf) ([2]; plasma, po, 30 mg/kg, PO-30mpk) [µg·h/mL] | IC50 (CYP2C9) [µM] | further results
CC(C)(c1ccc(-c2cnc(OCc3ccnc(N4CC(S(=N)(=O)C5CC5)C4)n3)cn2)cc1)c1cc(Cl)c(OCCCl)c(C#N)c1 (single isomer, unassigned) [Compound 350A] | > 10 | > 10 | > 10 | > 10 | – | – | – | – | – | – | IC50 (LNCaP cells; Homo sapiens, LNCaP, 168 h): 0.055 µM
CC(C)(c1ccc(-c2cnc(OCc3ccnc(N4CC5(CCS5(=N)=O)C4)n3)cn2)cc1)c1cc(Cl)c(OCCCl)c(C#N)c1 (single isomer, unassigned) [Compound 375A] | > 10 | > 10 | > 10 | > 10 | 109000 | 6.82 | 3.3 | 0.089 | – | – | AUCi ([2]; PO-30mpk, 30 mg/kg): 1307.079 µg·h/mL; IC50 (LNCaP cells): 0.058 µM
CC(C)(c1ccc(-c2cnc(OCc3ccnc(N4CC5(CCS5(=N)=O)C4)n3)cn2)cc1)c1cc(Cl)c(OCCCl)c(C#N)c1 (single isomer, unassigned) [Compound 375B] | > 10 | > 10 | > 10 | > 10 | – | – | – | – | – | – | AUCi ([2]; PO-30mpk, 30 mg/kg): 2620.877 µg·h/mL; Cmax (PO) ([2]; PO-30mpk, 30 mg/kg): 153425 ng/mL; T1/2 ([2]; PO-30mpk, 30 mg/kg): 8.67 h; Tmax ([2]; PO-30mpk, 30 mg/kg): 4.0 h; IC50 (22RV1 cells): 0.12 µM; IC50 (LNCaP cells; Homo sapiens, LNCaP, 168 h): 0.1 µM
CC(C)(c1ccc(-c2ccc(OCc3ccnc(N=S4(=O)CCCC4)n3)cc2)cc1)c1cc(Cl)c(OCCCl)c(C#N)c1 [Compound 7] | – | > 10 | > 10 | > 10 | 12300 | 5 | 3.3 | 0.46 | 161 | 7.3 | –
CC(C)(c1ccc(-c2ccc(OCc3ccnc(N=S4(=O)CCCC4)n3)cc2)cc1)c1cnc2c(cnn2CCCl)c1 [Compound 46] | > 10 | > 10 | 4.5 | > 10 | 20700 | 3.58 | 4 | 0.59 | 220 | 6.7 | –
CC(C)(c1ccc(-c2ccc(OC3CCN(c4ccnc(P(C)(C)=O)n4)CC3)cc2)cc1)c1cc(Cl)c(OCCCl)c(C#N)c1 [Compound 48] | > 10 | 1.7 | > 10 | > 10 | 13000 | 18 | 4 | 0.44 | 358 | 5.4 | –
CC(C)(c1ccc(-c2ccc(OCc3ccnc(N4CC(S(C)(=O)=O)C4)n3)cc2)cc1)c1cc(Cl)c(OCCCl)c(C#N)c1 [Compound 53] | > 10 | > 10 | > 10 | > 10 | 13200 | 28.1 | 4 | 0.28 | 421 | > 10 | C0 ([2]; plasma, 0.5 mg/kg, IV-0.5mpk): 2100 ng/mL; clearance ([2]; plasma, 0.5 mg/kg, IV-0.5mpk): 0.59 mL/min/kg; bioavailability ([2]; plasma, 30 mg/kg, PO-30mpk vs IV-0.5mpk): 68.4%; AUC(0-inf) [2, 6]: 10.2 µg·h/mL; half-life [2, 6]: 33.6 h
CC(C)(c1ccc(-c2ccc(OCc3ccnc(N4CC5(CC(P(C)(C)=O)C5)C4)n3)cc2)cc1)c1cc(Cl)c(OCCCl)c(C#N)c1 [Compound 61] | > 10 | > 10 | > 10 | > 10 | 15600 | 7.6 | 6 | 0.38 | 242 | > 10 | –

— patent EP4778922A1, “BICYCLIC COMPOUND, AND PREPARATION METHOD THEREFOR AND PHARMACEUTICAL USE THEREOF” (Shanghai Jeyou Pharmaceutical Co., Ltd., priority 2023, dated 2025)
